{
  "source": "paper PMC7198601",
  "about": "“Side chain effect in the modulation of αvβ3/α5β1 integrin activity via clickable isoxazoline-RGD-mimetics: development of molecular delivery systems” (Scientific Reports, 2020)",
  "key": {"α5β1 integrin [1]": {"target": "T1, α5β1 integrin (Homo sapiens, UniProt P05556+P08648)", "T1 sequence (P08648 42-894 limits assumed)": "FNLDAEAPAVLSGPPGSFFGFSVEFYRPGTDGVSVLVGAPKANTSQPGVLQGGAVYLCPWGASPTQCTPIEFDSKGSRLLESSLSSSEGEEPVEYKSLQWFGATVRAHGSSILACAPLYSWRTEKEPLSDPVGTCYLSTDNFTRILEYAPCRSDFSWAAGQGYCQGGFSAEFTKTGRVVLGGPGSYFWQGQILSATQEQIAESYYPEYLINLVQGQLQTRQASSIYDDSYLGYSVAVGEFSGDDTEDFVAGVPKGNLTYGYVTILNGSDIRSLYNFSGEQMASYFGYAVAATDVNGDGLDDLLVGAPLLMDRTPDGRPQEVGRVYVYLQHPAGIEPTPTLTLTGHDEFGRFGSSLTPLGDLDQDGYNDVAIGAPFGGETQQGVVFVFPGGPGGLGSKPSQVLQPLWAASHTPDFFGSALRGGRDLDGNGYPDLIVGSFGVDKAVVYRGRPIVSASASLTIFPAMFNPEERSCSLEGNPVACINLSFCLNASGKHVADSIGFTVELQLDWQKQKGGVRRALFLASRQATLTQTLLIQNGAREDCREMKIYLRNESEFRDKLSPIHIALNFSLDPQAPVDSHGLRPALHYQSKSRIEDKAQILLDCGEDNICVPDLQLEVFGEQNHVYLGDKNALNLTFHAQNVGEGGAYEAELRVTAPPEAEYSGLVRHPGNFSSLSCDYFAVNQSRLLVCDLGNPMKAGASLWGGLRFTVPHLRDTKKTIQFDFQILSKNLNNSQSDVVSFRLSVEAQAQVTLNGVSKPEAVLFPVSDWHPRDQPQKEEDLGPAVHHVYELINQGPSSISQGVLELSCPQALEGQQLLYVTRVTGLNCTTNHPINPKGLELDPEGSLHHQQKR", "T1 sequence (P08648 895-1049 partner limits assumed)": "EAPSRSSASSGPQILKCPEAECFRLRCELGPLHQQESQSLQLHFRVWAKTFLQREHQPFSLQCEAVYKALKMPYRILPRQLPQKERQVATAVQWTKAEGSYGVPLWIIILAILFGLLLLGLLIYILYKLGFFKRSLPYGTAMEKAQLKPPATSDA", "T1 sequence (P05556 21-798)": "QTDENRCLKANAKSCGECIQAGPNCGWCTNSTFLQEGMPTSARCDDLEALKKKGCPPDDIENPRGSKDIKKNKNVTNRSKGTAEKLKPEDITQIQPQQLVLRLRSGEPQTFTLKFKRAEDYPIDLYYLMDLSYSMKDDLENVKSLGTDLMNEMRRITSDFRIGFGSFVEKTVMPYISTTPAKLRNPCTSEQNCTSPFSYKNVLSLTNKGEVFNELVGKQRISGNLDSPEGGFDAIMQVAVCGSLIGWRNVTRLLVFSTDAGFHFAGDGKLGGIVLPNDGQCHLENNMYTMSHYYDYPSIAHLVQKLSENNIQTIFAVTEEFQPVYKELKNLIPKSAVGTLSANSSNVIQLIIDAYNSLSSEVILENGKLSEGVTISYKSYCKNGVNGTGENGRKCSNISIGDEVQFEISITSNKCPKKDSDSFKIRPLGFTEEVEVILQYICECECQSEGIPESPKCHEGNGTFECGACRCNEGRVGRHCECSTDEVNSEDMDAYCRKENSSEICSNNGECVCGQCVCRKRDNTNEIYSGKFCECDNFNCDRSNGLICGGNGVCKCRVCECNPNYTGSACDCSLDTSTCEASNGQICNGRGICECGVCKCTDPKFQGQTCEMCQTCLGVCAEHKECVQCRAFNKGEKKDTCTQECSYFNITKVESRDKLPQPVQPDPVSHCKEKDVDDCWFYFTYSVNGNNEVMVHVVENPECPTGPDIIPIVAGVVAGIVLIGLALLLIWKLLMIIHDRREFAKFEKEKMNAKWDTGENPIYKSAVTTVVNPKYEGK", "set-up": "K562 cells (human erythroleukemic cells, expressing α5β1 integrin); endogenous in cells; host or cells: K-562 (ATCC), treated with PMA 40 h before the experiments", "settings": "cited from earlier work; for IC50: cell adhesion assay, Figure 1, ref ChemMedChem 2011, 6, 2264–2272; for α5β1 behaviour (agonist/antagonist): reference compounds, entries 11-17, 41 (table footnotes b-f)"}, "αvβ3 integrin [2]": {"target": "T2, αvβ3 integrin (Homo sapiens, UniProt P05106+P06756)", "T2 sequence (P06756 31-889 limits assumed)": "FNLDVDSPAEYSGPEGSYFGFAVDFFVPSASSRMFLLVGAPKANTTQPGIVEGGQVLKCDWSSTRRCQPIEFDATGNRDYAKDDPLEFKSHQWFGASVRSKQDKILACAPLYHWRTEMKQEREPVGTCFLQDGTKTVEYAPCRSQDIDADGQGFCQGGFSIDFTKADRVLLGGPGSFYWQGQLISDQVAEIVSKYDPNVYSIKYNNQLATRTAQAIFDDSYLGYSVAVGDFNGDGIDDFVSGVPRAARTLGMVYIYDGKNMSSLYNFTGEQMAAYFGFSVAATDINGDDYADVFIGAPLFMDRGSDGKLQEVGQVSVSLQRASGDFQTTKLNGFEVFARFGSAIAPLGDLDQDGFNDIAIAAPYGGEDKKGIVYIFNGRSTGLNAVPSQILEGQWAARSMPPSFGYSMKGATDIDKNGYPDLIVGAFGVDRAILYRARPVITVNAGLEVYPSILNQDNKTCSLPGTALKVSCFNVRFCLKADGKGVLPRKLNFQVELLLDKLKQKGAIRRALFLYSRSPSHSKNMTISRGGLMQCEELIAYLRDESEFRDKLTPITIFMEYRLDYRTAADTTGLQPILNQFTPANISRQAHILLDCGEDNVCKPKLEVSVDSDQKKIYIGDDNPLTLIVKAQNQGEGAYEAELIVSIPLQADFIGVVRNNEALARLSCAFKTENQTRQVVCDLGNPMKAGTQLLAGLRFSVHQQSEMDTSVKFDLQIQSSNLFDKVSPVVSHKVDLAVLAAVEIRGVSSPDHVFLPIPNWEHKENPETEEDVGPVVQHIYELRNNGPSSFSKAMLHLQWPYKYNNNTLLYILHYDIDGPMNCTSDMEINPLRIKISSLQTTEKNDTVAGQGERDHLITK", "T2 sequence (P06756 891-1048 partner limits assumed)": "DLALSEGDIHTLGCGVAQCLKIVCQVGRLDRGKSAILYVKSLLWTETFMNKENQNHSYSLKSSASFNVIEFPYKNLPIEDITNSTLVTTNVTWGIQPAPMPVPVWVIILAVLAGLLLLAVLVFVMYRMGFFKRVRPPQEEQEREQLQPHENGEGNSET", "T2 sequence (P05106 27-788)": "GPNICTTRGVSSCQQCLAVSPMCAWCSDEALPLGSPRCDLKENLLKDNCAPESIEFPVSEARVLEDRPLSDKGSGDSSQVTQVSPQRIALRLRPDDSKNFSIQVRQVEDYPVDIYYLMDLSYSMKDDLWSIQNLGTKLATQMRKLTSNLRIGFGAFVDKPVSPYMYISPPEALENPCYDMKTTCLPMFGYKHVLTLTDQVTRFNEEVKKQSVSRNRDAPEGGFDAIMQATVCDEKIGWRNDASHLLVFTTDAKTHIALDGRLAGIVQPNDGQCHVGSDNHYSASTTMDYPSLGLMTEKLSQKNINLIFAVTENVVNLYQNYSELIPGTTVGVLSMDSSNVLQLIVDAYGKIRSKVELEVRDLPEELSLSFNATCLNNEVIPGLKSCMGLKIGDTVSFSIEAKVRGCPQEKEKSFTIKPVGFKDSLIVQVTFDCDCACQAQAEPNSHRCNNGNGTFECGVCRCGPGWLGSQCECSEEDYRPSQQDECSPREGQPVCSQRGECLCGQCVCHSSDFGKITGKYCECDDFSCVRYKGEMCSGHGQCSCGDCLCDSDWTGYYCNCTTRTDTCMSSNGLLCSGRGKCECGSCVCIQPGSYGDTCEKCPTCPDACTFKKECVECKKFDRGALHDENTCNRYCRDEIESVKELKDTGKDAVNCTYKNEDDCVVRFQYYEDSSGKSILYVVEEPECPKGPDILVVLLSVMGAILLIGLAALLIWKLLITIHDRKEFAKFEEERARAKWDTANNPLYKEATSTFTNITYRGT", "set-up": "SK-MEL-24 cells (human malignant melanoma cells, expressing αvβ3 integrin); endogenous in cells; host or cells: SK-MEL-24 (ATCC)", "settings": "cited from earlier work; for IC50: cell adhesion assay, Figure 1, ref ChemMedChem 2011, 6, 2264–2272; for αvβ3 behaviour (agonist/antagonist): reference compounds, entries 11-19, Dechantsreiter et al. (table footnotes b-h)"}, "α5β1 integrin [3]": {"target": "T1, α5β1 integrin", "assay": "Cell adhesion assay: K562 cells to immobilized fibronectin (α5β1 integrin-mediated)", "method": "(§1) The ability of the synthesized racemic ligands to inhibit the adhesion of K562 cells (human erythroleukemic cells, expressing α5β1 integrin) or SK-MEL-24 cells (human malignant melanoma cells, expressing αvβ3 integrin) to immobilized fibronectin was evaluated[29]. […] In these experiments, the cells were seeded onto plates coated with fibronectin and allowed to adhere before quantitation of the number of adherent cells, in presence of increasing concentrations of the compounds.\n(§2) SK-MEL-24 (American Tissue Culture Collection, ATCC, Rockville, MD) were routinely grown in minimum essential medium (MEM, Cambrex, Walkersville, MD) supplemented with 10% fetal bovine serum (FBS), nonessential amino acids, and sodium pyruvate. K-562 (ATCC, Rockville, MD) were maintained as a stationary suspension culture in RPMI-1640 and L-glutamine with 10% FBS (Invitrogen (Carlsbad, CA). Cells were kept at 37 °C in a 5% CO2 humidified atmosphere. Forty hours before experiments, K-562 were treated with 25 ng/mL PMA (Sigma-Aldrich SRL, Milan, Italy) to induce differentiation and to increase expression of cell surface antigens[50].\n(§3) Plates (96 wells) (Corning Costar, Celbio, Milan,Italy) were coated by passive adsorption with fibronectin (10 µg/mL) or poly-L-lysine (0.002%) (Sigma-Aldrich SRL) overnight at 4 °C. Cells were counted with a haemocytometer and pre-incubated with different concentrations of each compound or with the vehicle (methanol) for 30 min at room temperature to reach a ligand-receptor equilibrium. Stock solutions (10^–2 M) of the assayed compounds were prepared in phosphate-buffered saline (PBS). […] This product is a chromogenic substrate for β-N-acetylglucosaminidase that is transformed in 4-nitrophenol whose absorbance can be measured at 405 nm. As previously described[51], there is a linear correlation between absorbance and enzymatic activity. Therefore, it is possible to identify the number of adherent cells among treated wells, interpolating the absorbance values of unknowns in a calibration curve. The reaction was blocked by addition of 100 µL of a stopping solution [50 µM glycine and 5 µM EDTA (pH 10.4)], and the plates were read in an EnSpire Multimode Plate Reader (PerkinElmer, Waltham, MA, USA). Experiments were carried out in quadruplicate and repeated at least three times. Data analysis and IC50/EC50 values were calculated using Graph-Pad Prism 5.0 (GraphPad Software, San Diego, CA)."}, "αvβ3 integrin [4]": {"target": "T2, αvβ3 integrin", "assay": "Cell adhesion assay: SK-MEL-24 cells to immobilized fibronectin (αvβ3 integrin-mediated)", "settings": "for αvβ3 behaviour (agonist/antagonist): SK-MEL-24 cell adhesion to fibronectin", "method": "as §1, §2, §3"}},
  "note": "Where two headings read alike, the source gives them in different places.",
  "data": [
    {"molecule": "CC1=C(C(=O)NCc2ccc(N)cc2)C(C)N(C(=O)CC(=O)O)O1", "note": "(stereo not drawn) [Ref A]", "values": [
      {"measurement": "IC50", "setting": "α5β1 integrin [1]", "result": "0.012 ± 0.004", "unit": "µM"},
      {"measurement": "α5β1 IC50/EC50 (IC50 for antagonists)", "setting": "α5β1 integrin [1]; cell adhesion to fibronectin", "result": "0.012 ± 0.004", "unit": "µM"},
      {"measurement": "α5β1 behaviour (agonist/antagonist)", "setting": "α5β1 integrin [1]", "result": "antagonist"},
      {"measurement": "IC50", "setting": "αvβ3 integrin [2]", "result": "0.032 ± 0.003", "unit": "µM"},
      {"measurement": "αvβ3 IC50/EC50 (IC50 for antagonists)", "setting": "αvβ3 integrin [2]; cell adhesion to fibronectin", "result": "0.032 ± 0.003", "unit": "µM"},
      {"measurement": "αvβ3 behaviour (agonist/antagonist)", "setting": "αvβ3 integrin [2]", "result": "antagonist"}
    ]},
    {"molecule": "CC1=C(C(=O)NCc2ccc(N)cc2)C(C2CCCCC2)N(C(=O)CC(=O)O)O1", "note": "(stereo not drawn) [Ref D]", "values": [
      {"measurement": "IC50", "setting": "α5β1 integrin [1]", "result": "1.03 ± 0.05", "unit": "µM"},
      {"measurement": "α5β1 IC50/EC50 (IC50 for antagonists)", "setting": "α5β1 integrin [1]; cell adhesion to fibronectin", "result": "1.030 ± 0.050", "unit": "µM"},
      {"measurement": "α5β1 behaviour (agonist/antagonist)", "setting": "α5β1 integrin [1]", "result": "antagonist"},
      {"measurement": "IC50", "setting": "αvβ3 integrin [2]", "result": "0.02 ± 0.006", "unit": "µM"},
      {"measurement": "αvβ3 IC50/EC50 (IC50 for antagonists)", "setting": "αvβ3 integrin [2]; cell adhesion to fibronectin", "result": "0.020 ± 0.006", "unit": "µM"},
      {"measurement": "αvβ3 behaviour (agonist/antagonist)", "setting": "αvβ3 integrin [2]", "result": "antagonist"}
    ]},
    {"molecule": "C#CCCCC1C(C(=O)NCc2ccc(N)cc2)=C(C)ON1C(=O)CC(=O)O", "note": "(stereo not drawn) [Compound 8]", "values": [
      {"measurement": "IC50", "setting": "α5β1 integrin [3]", "result": "> 1000", "unit": "µM"},
      {"measurement": "EC50", "setting": "αvβ3 integrin [4]", "result": "0.83 ± 0.05", "unit": "µM"},
      {"measurement": "αvβ3 behaviour (agonist/antagonist)", "setting": "αvβ3 integrin [4]", "result": "agonist"}
    ]},
    {"molecule": "Ac-Asp-Arg-Leu-Asp-Ser-OH (Ac-DRLDS-OH) [standard antagonist of cell adhesion mediated by αvβ3 integrin]", "values": [
      {"measurement": "α5β1 IC50/EC50", "setting": "α5β1 integrin [1]; reference compound", "result": ">1000", "unit": "µM"},
      {"measurement": "αvβ3 IC50/EC50 (IC50 for antagonists)", "setting": "αvβ3 integrin [2]; reference compound", "result": "0.025 ± 0.003", "unit": "µM"},
      {"measurement": "αvβ3 behaviour (agonist/antagonist)", "setting": "αvβ3 integrin [2]", "result": "antagonist"}
    ]},
    {"molecule": "CC1=C(C(=O)NCc2ccc(N)cc2)C(CCCc2cn(CCOCCOCCNC(=O)OC(C)(C)C)nn2)N(C(=O)CC(=O)O)O1", "note": "(stereo not drawn) [Compound 28]", "values": [
      {"measurement": "IC50", "setting": "α5β1 integrin [3]", "result": "> 1000", "unit": "µM"},
      {"measurement": "IC50", "setting": "αvβ3 integrin [4]", "result": "8.84 ± 0.14", "unit": "µM"},
      {"measurement": "αvβ3 behaviour (agonist/antagonist)", "setting": "αvβ3 integrin [4]", "result": "antagonist"}
    ]},
    {"molecule": "H-Gly-Arg-Gly-Asp-Thr-Pro-OH (H-GRGDTP-OH) [standard antagonist of cell adhesion mediated by α5β1 integrin]", "values": [
      {"measurement": "α5β1 IC50/EC50 (IC50 for antagonists)", "setting": "α5β1 integrin [1]; reference compound", "result": "0.00062 ± 0.00009", "unit": "µM"},
      {"measurement": "α5β1 behaviour (agonist/antagonist)", "setting": "α5β1 integrin [1]", "result": "antagonist"},
      {"measurement": "αvβ3 IC50/EC50 (IC50 for antagonists)", "setting": "αvβ3 integrin [2]; reference compound", "result": "0.926 ± 0.006", "unit": "µM"},
      {"measurement": "αvβ3 behaviour (agonist/antagonist)", "setting": "αvβ3 integrin [2]", "result": "antagonist"}
    ]},
    {"molecule": "Cc1ccccc1NC(=O)N1C(=O)CC1CC(=O)NCC(=O)O", "note": "(stereo not drawn) [Ref E, 2-(2-(4-Oxo-(o-tolylcarbamoyl)azetidin-2-yl)acetamido)acetic acid]", "values": [
      {"measurement": "α5β1 IC50/EC50 (EC50 for agonists)", "setting": "α5β1 integrin [1]; cell adhesion to fibronectin", "result": "0.0129 ± 0.0006", "unit": "µM"},
      {"measurement": "α5β1 behaviour (agonist/antagonist)", "setting": "α5β1 integrin [1]", "result": "agonist"},
      {"measurement": "αvβ3 IC50/EC50", "setting": "αvβ3 integrin [2]; cell adhesion to fibronectin", "result": ">1000", "unit": "µM"}
    ]},
    {"molecule": "CC1=C(C(=O)NCc2ccc(N)cc2)C(CCCc2cn(CCNC(=O)OC(C)(C)C)nn2)N(C(=O)CC(=O)O)O1", "note": "(stereo not drawn) [Compound 17a]", "values": [
      {"measurement": "IC50", "setting": "α5β1 integrin [3]", "result": "0.28 ± 0.03", "unit": "µM"},
      {"measurement": "α5β1 behaviour (agonist/antagonist)", "setting": "α5β1 integrin [3]; K562 cell adhesion to fibronectin", "result": "antagonist"},
      {"measurement": "IC50", "setting": "αvβ3 integrin [4]", "result": "0.88 ± 0.07", "unit": "µM"},
      {"measurement": "αvβ3 behaviour (agonist/antagonist)", "setting": "αvβ3 integrin [4]", "result": "antagonist"}
    ]},
    {"molecule": "CCC(C)C1C(C(=O)NCc2ccc(N)cc2)=C(C)ON1C(=O)CC(=O)O", "note": "(stereo not drawn) [Ref C]", "values": [
      {"measurement": "IC50", "setting": "α5β1 integrin [1]", "result": "1.32 ± 0.08", "unit": "µM"},
      {"measurement": "α5β1 IC50/EC50 (IC50 for antagonists)", "setting": "α5β1 integrin [1]; cell adhesion to fibronectin", "result": "1.320 ± 0.080", "unit": "µM"},
      {"measurement": "α5β1 behaviour (agonist/antagonist)", "setting": "α5β1 integrin [1]", "result": "antagonist"},
      {"measurement": "IC50", "setting": "αvβ3 integrin [2]", "result": "0.36 ± 0.07", "unit": "µM"},
      {"measurement": "αvβ3 IC50/EC50 (IC50 for antagonists)", "setting": "αvβ3 integrin [2]; cell adhesion to fibronectin", "result": "0.360 ± 0.070", "unit": "µM"},
      {"measurement": "αvβ3 behaviour (agonist/antagonist)", "setting": "αvβ3 integrin [2]", "result": "antagonist"}
    ]},
    {"molecule": "CC1=C(C(=O)NCc2ccc(N)cc2)C(C(C)C)N(C(=O)CC(=O)O)O1", "note": "(stereo not drawn) [Ref B]", "values": [
      {"measurement": "IC50", "setting": "α5β1 integrin [1]", "result": "0.00105 ± 0.0003", "unit": "µM"},
      {"measurement": "α5β1 behaviour (agonist/antagonist)", "setting": "α5β1 integrin [1]", "result": "antagonist"},
      {"measurement": "IC50", "setting": "αvβ3 integrin [2]", "result": "0.0088 ± 0.0006", "unit": "µM"},
      {"measurement": "αvβ3 IC50/EC50 (IC50 for antagonists)", "setting": "αvβ3 integrin [2]; cell adhesion to fibronectin", "result": "0.0088 ± 0.0006", "unit": "µM"},
      {"measurement": "αvβ3 behaviour (agonist/antagonist)", "setting": "αvβ3 integrin [2]", "result": "antagonist"}
    ]},
    {"molecule": "CCOC(=O)COCCOCCn1cc(CCCC2C(C(=O)NCc3ccc(N)cc3)=C(C)ON2C(=O)CC(=O)O)nn1", "note": "(stereo not drawn) [Compound 30]", "values": [
      {"measurement": "IC50", "setting": "α5β1 integrin [3]", "result": "> 1000", "unit": "µM"},
      {"measurement": "IC50", "setting": "αvβ3 integrin [4]", "result": "> 1000", "unit": "µM"}
    ]},
    {"molecule": "CC1=C(C(=O)NCc2ccc(N)cc2)C(CCCc2cn(CCC(=O)OC(C)(C)C)nn2)N(C(=O)CC(=O)O)O1", "note": "(stereo not drawn) [Compound 20b]", "values": [
      {"measurement": "IC50", "setting": "α5β1 integrin [3]", "result": "> 1000", "unit": "µM"},
      {"measurement": "EC50", "setting": "αvβ3 integrin [4]", "result": "0.068 ± 0.011", "unit": "µM"},
      {"measurement": "αvβ3 behaviour (agonist/antagonist)", "setting": "αvβ3 integrin [4]", "result": "agonist"}
    ]},
    {"molecule": "CCOC(=O)CCCCn1cc(CCCC2C(C(=O)NCc3ccc(N)cc3)=C(C)ON2C(=O)CC(=O)O)nn1", "note": "(stereo not drawn) [Compound 26]", "values": [
      {"measurement": "IC50", "setting": "α5β1 integrin [3]", "result": "> 1000", "unit": "µM"},
      {"measurement": "EC50", "setting": "αvβ3 integrin [4]", "result": "0.61 ± 0.08", "unit": "µM"},
      {"measurement": "αvβ3 behaviour (agonist/antagonist)", "setting": "αvβ3 integrin [4]", "result": "agonist"}
    ]},
    {"molecule": "CC1=C(C(=O)NCc2ccc(N)cc2)C(CCCc2cn(CC(=O)OC(C)(C)C)nn2)N(C(=O)CC(=O)O)O1", "note": "(stereo not drawn) [Compound 20a]", "values": [
      {"measurement": "IC50", "setting": "α5β1 integrin [3]", "result": "> 1000", "unit": "µM"},
      {"measurement": "EC50", "setting": "αvβ3 integrin [4]", "result": "0.23 ± 0.08", "unit": "µM"},
      {"measurement": "αvβ3 behaviour (agonist/antagonist)", "setting": "αvβ3 integrin [4]", "result": "agonist"}
    ]}
  ]
}
